Experimental data from patent US8946282B2, “Indolin-2-one derivatives as protein kinase inhibitors” (Annji Pharmaceutical Co., Ltd., priority 2012, dated 2015).

Key:
aurora B = aurora B (Homo sapiens, UniProt Q96GD4); assay: radioisotope-based P81 filter-binding assay, aurora B kinase; type: biochemical; details: for IC50: averaged from two independent dose-response curves, read-out: Enzyme assay IC50 Aur B; for inhibition at 1 µM: compound at 1.0 μM, mean values (n=2), read-out: percent inhibition of enzyme catalytic activity, Aur B (numbers in parentheses)
Procedure: (§1) Compounds of formula (I)-(IV) were evaluated for abilities in inhibiting protein kinases aurora B and FLT-3 activity using radioisotope-based P81 filter-binding assay (Table 1).

FLT-3 = molecular target: T1, FLT-3 (Homo sapiens, UniProt P36888); assay: radioisotope-based P81 filter-binding assay, FLT-3 kinase; type: biochemical; details: for IC50: averaged from two independent dose-response curves, read-out: Enzyme assay IC50 FLT-3
T1 sequence (P36888 27-993): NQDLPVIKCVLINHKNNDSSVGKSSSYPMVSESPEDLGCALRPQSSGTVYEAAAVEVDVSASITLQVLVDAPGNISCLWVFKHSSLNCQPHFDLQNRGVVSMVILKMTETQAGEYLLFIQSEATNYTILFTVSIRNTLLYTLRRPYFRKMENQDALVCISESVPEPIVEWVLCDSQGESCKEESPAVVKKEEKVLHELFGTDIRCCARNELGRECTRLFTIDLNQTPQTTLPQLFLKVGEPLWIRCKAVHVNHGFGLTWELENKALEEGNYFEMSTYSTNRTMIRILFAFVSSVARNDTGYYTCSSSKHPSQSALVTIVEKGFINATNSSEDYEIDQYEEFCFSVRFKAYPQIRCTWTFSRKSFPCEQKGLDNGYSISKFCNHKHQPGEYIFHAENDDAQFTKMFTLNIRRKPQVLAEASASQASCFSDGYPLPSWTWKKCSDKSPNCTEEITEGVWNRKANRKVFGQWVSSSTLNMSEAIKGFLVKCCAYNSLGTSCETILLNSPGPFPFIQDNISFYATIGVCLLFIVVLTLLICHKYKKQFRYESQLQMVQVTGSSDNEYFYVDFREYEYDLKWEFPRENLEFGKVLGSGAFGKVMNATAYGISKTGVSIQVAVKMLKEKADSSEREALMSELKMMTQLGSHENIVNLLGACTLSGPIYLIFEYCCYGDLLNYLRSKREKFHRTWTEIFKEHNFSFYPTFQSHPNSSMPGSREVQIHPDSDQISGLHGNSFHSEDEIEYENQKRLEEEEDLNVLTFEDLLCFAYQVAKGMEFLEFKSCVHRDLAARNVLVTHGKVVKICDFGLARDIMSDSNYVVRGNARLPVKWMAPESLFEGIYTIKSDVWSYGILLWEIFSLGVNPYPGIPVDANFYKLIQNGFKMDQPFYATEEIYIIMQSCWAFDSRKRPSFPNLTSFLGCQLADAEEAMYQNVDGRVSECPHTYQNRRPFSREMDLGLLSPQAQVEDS
Procedure: as §1

aurora B, sequence (Q96GD4 whole entry): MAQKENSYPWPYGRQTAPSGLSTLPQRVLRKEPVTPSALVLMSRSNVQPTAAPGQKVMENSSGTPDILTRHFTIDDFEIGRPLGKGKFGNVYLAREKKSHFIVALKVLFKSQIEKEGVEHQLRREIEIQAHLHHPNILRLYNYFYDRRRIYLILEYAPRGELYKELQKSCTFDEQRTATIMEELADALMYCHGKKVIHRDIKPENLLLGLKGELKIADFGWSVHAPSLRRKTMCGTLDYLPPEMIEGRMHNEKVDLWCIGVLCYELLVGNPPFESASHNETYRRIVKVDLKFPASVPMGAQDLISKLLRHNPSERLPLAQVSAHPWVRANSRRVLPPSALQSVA

Structure (SMILES) | IC50 (aurora B) [nM] | IC50 (FLT-3) [nM] | melting point | inhibition at 1 µM (aurora B) [%] | inhibition at 1 µM (FLT-3; compound at 1.0 μM, mean values (n=2), read-out: percent inhibition of enzyme catalytic activity, FLT-3 (numbers in parentheses)) [%]
Cc1[nH]c(/C=C2\C(=O)Nc3cc(NC(=O)NC(=O)c4ccc(C(F)(F)F)cc4)ccc32)c(C)c1C(=O)O [D35, (Z)-2,4-dimethyl-5-((2-oxo-6-(3-(4-(trifluoromethyl)benzoyl)ureido)indolin-3-ylidene)methyl)-1H-pyrrole-3-carboxylic acid] | 3.1 | 231 | > 300 °C |  | 
Cc1[nH]c(/C=C2\C(=O)Nc3cc(NC(=O)NC(=O)c4ccc([N+](=O)[O-])cc4)ccc32)c(C)c1C(=O)O [D38, (Z)-2,4-dimethyl-5-((6-(3-(4-nitrobenzoyl)ureido)-2-oxoindolin-3-ylidene)methyl)-1H-pyrrole-3-carboxylic acid] | 1.2 | > 1000 | 293 to 298 °C (dec.) |  | 
Cc1cccc(C(=O)NC(=O)Nc2ccc3c(c2)NC(=O)/C3=C\c2[nH]c(C)c(CCC(=O)O)c2C)c1 [D40, (Z)-3-(2,4-dimethyl-5-((6-(3-(3-methylbenzoyl)ureido)-2-oxoindolin-3-ylidene)-methyl)-1H-pyrrol-3-yl)propanoic acid] | 1.9 | 6.1 | 240 to 245 °C (dec.) |  | 
COc1cc(OC)cc(C(=O)NC(=O)Nc2ccc3c(c2)NC(=O)/C3=C\c2[nH]c(C)c(C(=O)O)c2C)c1 [D42, (Z)-5-((6-(3-(3,5-dimethoxybenzoyl)ureido)-2-oxoindolin-3-ylidene)methyl)-2,4-dimethyl-1H-pyrrole-3-carboxylic acid] | 2.1 | 115 | > 300 °C |  | 
COc1ccc(C(=O)NC(=O)Nc2ccc3c(c2)NC(=O)/C3=C\c2[nH]c(C)c(-c3ccccc3)c2C)cc1 [D43, (Z)—N-(3-((3,5-dimethyl-4-phenyl-1H-pyrrol-2-yl)methylene)-2-oxoindolin-6-ylcarbamoyl)-4-methoxybenzamide] |  | > 1000 | > 300 °C | 12.4 | 
COc1ccc(C(=O)NC(=O)Nc2ccc3c(c2)NC(=O)/C3=C\c2[nH]c(C)cc2C)cc1 [D44, (Z)—N-(3-((3,5-dimethyl-1H-pyrrol-2-yl)methylene)-2-oxoindolin-6-ylcarbamoyl)-4-methoxybenzamide] | 55.5 | > 1000 | 293 to 298 °C |  | 
COc1ccc(C(=O)NC(=O)Nc2ccc3c(c2)NC(=O)/C3=C\c2ccc(C(=O)O)[nH]2)cc1 [D45, (Z)-5-((6-(3-(4-methoxybenzoyl)ureido)-2-oxoindolin-3-ylidene)-methyl)-1H-pyrrole-2-carboxylic acid] |  |  | 286 to 291 °C (dec.) | 20.9 | 10
COc1ccc(C(=O)NC(=O)Nc2ccc3c(c2)NC(=O)/C3=C\c2[nH]c(C)c(CC(=O)O)c2C)cc1 [D46] | 1.8 | 31.7 | 240 to 245 °C (dec.) |  | 
COc1ccc(C(=O)NC(=O)Nc2cc3c(cc2F)/C(=C/c2ccc[nH]2)C(=O)N3)cc1 [D48, (Z)—N-(3-((1H-pyrrol-2-yl)methylene)-5-fluoro-2-oxoindolin-6-ylcarbamoyl)-4-methoxybenzamide] | 35.1 | > 10000 | > 300 °C |  | 
COc1ccc(C(=O)NC(=O)Nc2cc3c(cc2F)/C(=C/c2[nH]c(C)c(CC(=O)O)c2C)C(=O)N3)cc1 [D50, (Z)-2-(5-((5-fluoro-6-(3-(4-methoxybenzoyl)ureido)-2-oxoindolin-3-ylidene)-methyl)-2,4-dimethyl-1H-pyrrol-3-yl)acetic acid] | 1 | > 1000 | 292 to 297 °C (dec.) |  | 

Other lines, results leading:

IC50 (aurora B) [nM] | IC50 (FLT-3) [nM] | melting point | inhibition at 1 µM (aurora B) [%] | inhibition at 1 µM (FLT-3; compound at 1.0 μM, mean values (n=2), read-out: percent inhibition of enzyme catalytic activity, FLT-3 (numbers in parentheses)) [%] | Structure (SMILES)
6.5 | > 1000 | 276 to 281 °C (dec.) |  |  | O=C(NC(=O)c1ccccc1F)Nc1ccc2c(c1)NC(=O)/C2=C\c1ccc[nH]1 [D52, (Z)—N-(3-((1H-pyrrol-2-yl)methylene)-2-oxoindolin-6-ylcarbamoyl)-2-fluorobenzamide]
2.3 | 111 | 295 to 300 °C (dec.) |  |  | COc1ccc(C(=O)NC(=O)Nc2ccc3c(c2)NC(=O)/C3=C\c2[nH]c(C)c(C(=O)O)c2C)c(F)c1 [D57, (Z)-5-((6-(3-(2-fluoro-4-methoxybenzoyl)ureido)-2-oxoindolin-3-ylidene)methyl)-2,4-dimethyl-1H-pyrrol-3-carboxylic acid]
1.5 | 16.3 | 275 to 280 °C (dec.) |  |  | COc1ccc(C(=O)NC(=O)Nc2cc3c(cc2F)/C(=C/c2[nH]c(C)c(CCC(=O)O)c2C)C(=O)N3)c(F)c1 [D60, (Z)-3-(5-((5-fluoro-6-(3-(2-fluoro-4-methoxybenzoyl)ureido)-2-oxoindolin-3-ylidene)methyl)-2,4-dimethyl-1H-pyrrol-3-yl)propanic acid]
2.1 | 380 | > 300 °C |  |  | COc1cc(F)c(C(=O)NC(=O)Nc2cc3c(cc2F)/C(=C/c2[nH]c(C)c(C(=O)O)c2C)C(=O)N3)c(F)c1 [D61]
1720 | 2980 | 278 to 283 °C (dec.) |  |  | CCOC(=O)c1c(C)[nH]c(/C=C2\C(=O)Nc3cc(NC(=O)NC(=O)c4ccc(OC)cc4F)ccc32)c1C [D62, (Z)-ethyl-5-((6-(3-(2-fluoro-4-methoxybenzoyl)ureido)-2-oxoindolin-3-ylidene)methyl)-2,4-dimethyl-1H-pyrrole-3-carboxylate]
30.6 | 57.1 | 250 to 255 °C (dec.) |  |  | COc1ccc(C(=O)NC(=O)Nc2ccc3c(c2)NC(=O)/C3=C\c2[nH]c(C)c(C(=O)N3CCN(C)CC3)c2C)c(F)c1 [D64, (Z)—N-(3-((3,5-dimethyl-4-(4-methylpiperazine-1-carbonyl)-1H-pyrrol-2-yl)methylene)-2-oxoindolin-6-ylcarbamoyl)-2-fluoro-4-methoxybenzamide]
18.4 | 41.4 | 229 to 234 °C (dec.) |  |  | COc1ccc(C(=O)NC(=O)Nc2ccc3c(c2)NC(=O)/C3=C\c2[nH]c(C)c(CCC(=O)N3CCN(C)CC3)c2C)c(F)c1 [D65, (Z)—N-(3-((3,5-dimethyl-4-(3-(4-methylpiperazin-1-yl)-3-oxopropyl)-1H-pyrrol-2-yl)methylene)-2-oxoindolin-6-ylcarbomoyl)-2-fluoro-4-methoxybenzamide]
16.8 | 79.5 | 273 to 278 °C (dec.) |  |  | COc1ccc(C(=O)NC(=O)Nc2ccc3c(c2)NC(=O)/C3=C\c2[nH]c(C)c(C(=O)N3CCOCC3)c2C)c(F)c1 [D66, (Z)—N-(3-((3,5-dimethyl-4-(morpholine-4-carbonyl)-1H-pyrrol-2-yl)methylene)-2-oxoindolin-6-ylcarbamoyl)-2-fluoro-4-methoxybenzamide]
16.4 | 106 | 248 to 253 °C (dec.) |  |  | COc1ccc(C(=O)NC(=O)Nc2ccc3c(c2)NC(=O)/C3=C\c2[nH]c(C)c(CCC(=O)N3CCOCC3)c2C)c(F)c1 [D67]
1100 | 70.6 | 267 to 272 °C (dec.) |  |  | CN1CCN(C(=O)Nc2ccc3c(c2)NC(=O)/C3=C\c2ccc[nH]2)C1=O [D80, (Z)—N-(3-((1H-pyrrol-2-yl)methylene)-2-oxoindolin-6-yl)-3-methyl-2-oxoimidazolidine-1-carboxamide]
19.9 | 1800 | 284 to 289 °C (dec.) |  |  | O=C1Nc2cc(NC(=O)N3CCN(C4CC4)C3=O)ccc2/C1=C/c1ccc[nH]1 [D81, (Z)—N-(3-((1H-pyrrol-2-yl)methylene)-2-oxoindolin-6-yl)-3-cyclopropyl-2-oxoimidazolidine-1-carboxamide]
10.7 | 3330 | > 300 °C |  |  | O=C1Nc2cc(NC(=O)N3CCN(C4CC4)C3=O)c(F)cc2/C1=C/c1ccc[nH]1 [D82, (Z)—N-(3-((1H-pyrrol-2-yl)methylene)-5-fluoro-2-oxoindolin-6-yl)-3-cyclopropyl-2-oxoimidazolidine-1-carboxamide]
17.3 | 359 | 294 to 299 °C (dec.) |  |  | O=C1Nc2cc(NC(=O)N3CCN(c4ccccc4)C3=O)ccc2/C1=C/c1ccc[nH]1 [D83, (Z)—N-(3-((1H-pyrrol-2-yl)methylene)-2-oxoindolin-6-yl)-2-oxo-3-phenylimidazolidine-1-carboxamide]
